# Where “and” joins values, the source holds several entries; their conditions need not be identical. Identical values can stand only once. Like-named read-outs stand apart in the source and are kept apart here.
# Experiments:
# [1] = system: SOS lux; conditions: cited from earlier work
# [2] = system: RAD54 promoter-GFP reporter (pGen001); conditions: for GSA genotoxicity result: GenT01 yeast, overnight at 25° C., 2% DMSO diluent, no S9
# [3] = system: RAD54 promoter-yEGFP reporter; test: Fluorescence assay with intact yeast cells in cuvettes, RAD54-GFP reporter plasmid pWDH445 and rearranged derivatives; assay type: cell-based, Saccharomyces cerevisiae; conditions: 0.005% MMS, 15 hours
# Experimental: Starter cultures were initiated by inoculating 1.5 ml of F1 medium (plus appropriate nutritional supplements and 2% glucose) in sterile 15 ml polythene centrifuge tubes with small portions of colonies, picked by inoculating loop from stock plates. These starter cultures were grown for up to 24 hours at 30° C. with shaking (at 120 rpm) and were used as the source of inoculum for the assay cultures. Cells were inoculated into 1.5 ml F1 cultures in 15 ml polythene centrifuge tubes to give an initial OD600 nm of ˜0.1 (typically a 10-15 μl inoculum per 1.5 ml culture). The lids of the tubes were left one-quarter unscrewed, but held in place by masking tape, to ensure maximum oxygenation for GFP maturation. Half of the tubes were treated with 0.005% methyl methanesulphonate (MMS, methanesulphonic acid methyl ester) and half left as unchallenged controls. MMS was purchased as a liquid and this stock solution was taken to be 100%. […] For the measurement of intact yeast cell fluorescence of cells grown in YPD or SD, the cells were washed twice in sterile water to remove traces of autofluorescent medium and resuspended in 1.5 ml of sterile water. […] 4-window cuvettes were necessary since measurement of fluorescence emission is performed perpendicular to the path of excitation light.
# Fluorescence measurements were performed with a Perkin-Elmer LS50B Fluorescence Spectrometer (Perkin-Elmer Ltd., Beaconsfield, UK). […] For the yEGFP expressing reporter, the excitation and emission wavelengths were set to 490 nm and 518 nm respectively (due to the altered fluorescence characteristics of yEGFP), with 5 nm slit widths. To account for differences in cell numbers between YPD or SD assay cultures, the OD600 nm was recorded for each cuvette. Similarly, in order to measure protein extraction efficiency, light absorption at 280 nm (OD280 nm) was measured for crude cell extracts. […] The y-axis on uncorrected fluorescence scans gives raw data in the form of machine defined fluorescence intensity (“INT”) units. […]
# [4] = system: RNR3 regulatory element-GFP reporter; test: RNR3-GFP reporter microplate assay (pGenRNR3); assay type: cell-based, Saccharomyces cerevisiae; conditions: yeast test strain transformed with pGenRNR3
# Description: (§1) In addition to the RAD54 vectors described in the previous Examples, the inventors constructed an FF18984 reporter strain containing a replicative plasmid harbouring an RNR regulatory element. The vectors pGenRNR2 or pGenRNR3 are shown in FIGS. 24 and 25, respectively, and contain the upstream non-coding DNA sequence of the RNR2 gene or RNR3 gene fused to the yeast-enhanced Aequorea victoria GFP gene. A control FF18984 strain containing an identical plasmid except that 2 base pairs have been removed at the start of the GFP gene, such that no GFP is made, was also examined.
# In order to test the brightness of the reporter for RNR3 constructs, similar methodology was used as for RAD54 constructs, as described in the previous Examples, but using instead pGENRNR3.
# [5] = system: SOS umuC; conditions: cited from earlier work
# [6] = system: yeast strain GenT01 (FF18984); test: GreenScreen assay (GSA), cytotoxicity: final cell density by absorbance; conditions: GenT01 yeast, overnight at 25° C.
# Experimental: The following standard protocol was followed. A 1 mM stock of the test chemical was prepared in 2% v/v aqueous DMSO, and used to make 2 identical dilution series across the microplate and a ‘control’ (see below). To achieve this, 150 microlitres of the test chemical solution were put into 2 microplate wells. Each sample was serially diluted by transferring 75 microlitres into 75 microlitres of 2% DMSO, mixing, and then taking 75 microlitres out and into the next well. This produced 9 serial dilutions of 75 microlitres each.
# 75 microlitres of the yeast suspension were added to each well of the diluted chemical: GenT01 to one series and GenC01 to the second, and to appropriate standards and controls. After the plates were filled, they were sealed using either a gas permeable membrane (Breath-easy, Diversified Biotech, USA) or a plastic lid, and then incubated without shaking, overnight at 25° C.
# Following overnight incubation, fluorescence and absorbance data were collected from the microplates. […] Absorbance was measured through a 620 nm filter in both instruments. […] Fluorescence data were divided by absorbance data to give ‘brightness units’, the measure of average GFP induction per cell. […] In this way, one can distinguish between a small number of highly fluorescent cells and a large number of weakly fluorescent cells. In order to correct for induced cellular autofluorescence and intrinsic compound fluorescence, the brightness values for the GenC01 strain were subtracted from those of GenT01. This makes visual assessment of the data more reliable.
# The cytotoxicity threshold is set at 80% of the cell density reached by the untreated control cells.
# Table 12 lists chemicals/solvents that are often used with test samples, to promote dissolution etc. […] If these chemicals are used to dissolve compound stock solutions, they should also be included in the diluent used to make the compound dilution series. […] Interference of DMSO, a free radical scavenger, in the recombinogenic properties of several oxidising agents has previously been reported.
# [7] = system: RNR2 regulatory element-GFP reporter; test: RNR2-GFP reporter assay (pGenRNR2), cuvette and microplate; assay type: cell-based, Saccharomyces cerevisiae; conditions: yeast test strain transformed with pGenRNR2
# Description: as §1
# In order to test the brightness of the reporter for RNR2 constructs, similar methodology was used as for RAD54 constructs, as described in the previous Examples, but using instead pGENRNR2.
structure (smiles),measurement,setting,value
"COS(C)(=O)=O [MMS, methyl methanesulfonate]","SOS LUX ASSAY (M), LEC",[1],7.3e-05 M
same,GSA genotoxicity result,[2],induced
same,GSA genotoxicity result,[2]; listed as Methyl methanesulfonate,genotoxic
same,"GSA (M), lowest effective concentration (LEC)",[2]; S9 −,9.3e-06 M
same,induction ratio,[3]; FF18984 cells bearing normal pWDH445,7.72 and 5.5
same,induction ratio,[3]; FF18984 cells re-transformed with modified (rearranged) plasmid,5.2
same,induction ratio,[3]; original bright variant FF18984 cells carrying pWDH445,3.27
same,fluorescence induction by the reporter,[4],increases with increasing concentration
same,"SOS UMUC ASSAY (M), LEC",[5],0.00015 M
same,GSA cytotoxicity result,[6],strongly cytotoxic
same,brightness/fluorescence of GFP reporter,[7],induced

# — patent publication US20080064053A1, “Genotoxicity Testing” (priority 2003, published 2008)
